Key:
Assay type in all cases: toxicity, cell-based
U2OS = test: Incucyte cell viability with U2OS; conditions: human, 0 h, 10 µM, compound concentration 10 uM
Fibroblast = test: Incucyte cell viability with human fibroblast; conditions: 0 h, 10 µM, compound concentration 10 uM
HEK-293T = test: Incucyte cell viability with HEK293T; conditions: human, 10 µM, compound concentration 10 uM
[1] = replicate number 1, timepoint 0 hours
[2] = replicate number 2, timepoint 0 hours
Further: unitless GR value; below 1 slowed growth and below 0 cell loss.

O=C(NCCNCC(O)COc1ccc(O)cc1)N1CCOCC1.O=C(NCCNCC(O)COc1ccc(O)cc1)N1CCOCC1.O=C(O)/C=C/C(=O)O (configuration not stated) [XAMOTEROL FUMARATE]
Growth Rate (U2OS; [1]): 0.31 | Growth Rate (U2OS; [2]): -1 | Growth Rate (Fibroblast; [1]): -0.24 | Growth Rate (Fibroblast; [2]): -0.01 | Growth Rate (HEK-293T; 0 h, replicate number 1, timepoint 0 hours): 0.82 | Growth Rate (HEK-293T; 6 h, replicate number 2, timepoint 6 hours): 0.64 | Growth Rate (HEK-293T; 12 h, replicate number 2, timepoint 12 hours): 0.95
